Reference: publication PMC9635472, “Design, synthesis, and biological evaluation of novel ciprofloxacin derivatives as potential anticancer agents targeting topoisomerase II enzyme” (Journal of Enzyme Inhibition and Medicinal Chemistry, 2022)

Columns and labels:
[1] = tested on: Human bladder cancer (T-24) cell line; experiment: MTT cell viability assay, T-24 cells; type: cell-based; details: bladder cancer cell line T-24, treatment for 24 h (table title), means of three experiments, read-out: IC50 (μM* ± SD) T-24
Experimental: (§1) Human bladder cancer (T-24) and human prostate carcinoma (PC-3) cell lines were obtained from American Type Culture Collection (ATCC; Manassas, VA USA). Cells were maintained in Dulbecco’s modified Eagle medium with 10% foetal bovine serum at 37 °C and 5% CO2. All the operations were carried out under strict aseptic conditions. The culture medium was removed to a centrifuge tube containing 9.0 ml complete culture medium and spanned at approximately 125 × g for 5 to 7 min. The cell layer was rinsed with 0.25% (w/v) trypsin- […] EDTA solution by which all traces of serum-containing inhibitor were removed. Trypsin EDTA solution 2.0 to 3.0 ml was added to a flask and cells were monitored under an inverted microscope until the cell layer was dispersed (usually within 5–15 min). A complete growth medium was added (6.0–8.0 ml), and cells were aspirated by gentle pipetting. The cell pellet was suspended with the recommended complete medium and dispensed into a 75 cm^2 culture flask. The culture vessel containing the complete growth medium was placed in the incubator for 24 h to at 37 °C. The cells were treated with different concentrations (0.39, 1.60, 6.25, 25, and 100 μg/ml) of each of the test compounds or doxorubicin, […], then the plates were examined under the inverted microscope and finally the MTT assay was carried out.
(§2) Anti-cancer activity of the newly synthesised compounds was evaluated in vitro against both T-24 and PC-3 cell lines according to the MTT method. Cells were seeded into 96-well plates (flat bottom) at a density of 10 000 cells/well for 24 h. The vial of MTT to be used was reconstituted with 3 ml of medium or balanced salt solution without phenol red and serum. then, a reconstituted MTT vial was added in an amount equal to 10% of the culture medium volume. Cultures were incubated for 2–4 h depending on the cell type and maximum cell density and removed from the incubator and the formazan crystals were dissolved via the addition of an amount of MTT solubilisation solution (M-8910) equal to the original culture medium volume. ROBONIK P2000 spectrophotometer at a wavelength of 570 nm was used to measure the colour intensity spectrophotometrically. The survival curve of both T-24 and PC-3 cells was obtained by plotting the percentage of surviving cells against the drug after each compound. The IC50 value for each test compound and the reference drug doxorubicin was calculated.
(§3) In this study, all the newly synthesised CP derivatives were subjected to anticancer activity evaluation against bladder (T-24) and prostate cancer (PC-3) cell lines. The compounds were evaluated for their activity using 5 doses determinations (100 μg/ml, 25 μg/ml, 6.25 μg/ml, 1.60 μg/ml, and 0.39 μg/ml). Their half-maximal inhibitory concentration (IC50) values were measured. Doxorubicin was chosen as a reference anticancer drug[65].

PC-3 cells = experiment: Apoptosis determination by annexin V-FITC/PI assay, PC-3 cells; type: cell-based, human; details: at IC50, 24 h
Experimental: Apoptosis was evaluated using Annexin V fluorescein isothiocyanate (FITC) and propidium iodide (PI) using the Annexin V-FITC/PI apoptosis detection kit (Biovision, Mountain View, CA # K101-25). According to the manufacturer’s instructions after staining the cells with annexin V fluorescein (FITC) isothiocyanate. […] Cells were centrifuged and washed once with serum-containing media followed by resuspension in 500 µl of binding buffer. Then 5 µl Annexin V-FITC and 5 µl of (PI […]) were added and incubated for 5 min at room temperature in the dark. Analyses were performed using a flow cytometer (EX = 488 nm: Em = 530 nm) using a FITC signal detector and PI staining by a phycoerythrin emission signal detector.
While compound 8a induced both early and late apoptosis with 41.15- and 76.77-fold more than the control, respectively, and induced total apoptosis and necrosis with 14.87- and 2.44-fold more than the control, sequentially (Figure 16).

human DNA Topo II = biological target: T1, human DNA Topo II (Homo sapiens, UniProt P11388); experiment: In vitro DNA Topo II-mediated relaxation assay (supercoiled pBR322); type: biochemical; details: for IC50: means of three experiments, read-out: Topo II IC50 (µM*±SD); for inhibition at 0.1 µM / inhibition at 1 µM / inhibition at 10 µM / inhibition at 100 µM: recombinant Topo II relaxation; for inhibition at 0.1 µM: compound at 0.1 μM, read-out: Percentage of inhibition of Topo II, 0.1 μM; for inhibition at 1 µM: compound at 1 μM, read-out: Percentage of inhibition of Topo II, 1 μM; for inhibition at 10 µM: compound at 10 μM, read-out: Percentage of inhibition of Topo II, 10 μM; for inhibition at 100 µM: compound at 100 μM, read-out: Percentage of inhibition of Topo II, 100 μM
T1 construct: purchased USB Corp., USA
Experimental: DNA Topo II inhibitory activities of the targeted compounds were measured as follows. A mixture of 100 ng of supercoiled pBR322 plasmid DNA (Fermentas, USA) and 2 units of human DNA Topo II (USB Corp., USA) was incubated with and without the prepared compounds in the assay buffer (10 µM Tris-HCl pH 7.9) containing 50 µM NaCl, 4 µM MgCl2, 1 µM EDTA, 1 µM ATP, and 15 mg/ml bovine serum albumin for 30 min at 37 °C. The reaction in a final volume of 10 µl was terminated by the addition of 4 µl of 6 µM EDTA. DNA samples were then electrophoresed on 1% agarose gel containing 0.5 µg/ml ethidium bromide in gel and buffer at high voltage (100–250 v) until the dye front has migrated about 4–6 cm down the gel. with a running buffer of TAE Tris-acetate– EDTA (TAE). Gels were stained for 15 min in water. DNA bands were visualised by transillumination with UV light and quantitated using AlphaI-maker TM (Alpha Innotech Corporation).
Well-known Topo II inhibitor doxorubicin was used as a positive control. The reaction products of Topo II relaxation assays were analysed by electrophoretic mobility and developed in ethidium bromide in the presence of UV light. The inhibitory activities were evaluated at 4 concentrations of 100, 10, 1, and 0.1 μM for all compounds as shown in (Figure 6). Topo II inhibitory activities of the tested compounds are summarised in (Table 2).

T-24 cells = experiment: Cell cycle analysis (propidium iodide flow cytometry), T-24 cells; type: cell-based, human; details: for phase of cell cycle arrest: T-24 cancer cells
Experimental: The cell cycle was done using a propidium iodide flow cytometry kit (Abcam, ab139418) according to the manufacturer’s instructions. […] After treatment, the cells were washed twice with ice-cold phosphate buffer saline, then centrifuged and fixed using ice-cold 66% (v/v) ethanol, washed with phosphate buffer saline re-suspended with 0.10 mg/ml, and stained with 200 µl propidium iodide. Cells were analysed by flow cytometry. The cell cycle distributions were calculated using cell–quest software (Bectopn Dickinson).
While the accumulation of the cells in the S phase might result from the cell cycle arrest of T-24 cells in the S phase.

[2] = tested on: human prostate carcinoma (PC-3) cell line; experiment: MTT cell viability assay, PC-3 cells; type: cell-based; details: prostate cancer cell line PC-3, treatment for 24 h (table title), means of three experiments, read-out: IC50 (μM* ± SD) PC-3
Experimental: as §1, §2, §3

T1 sequence (P11388 whole entry): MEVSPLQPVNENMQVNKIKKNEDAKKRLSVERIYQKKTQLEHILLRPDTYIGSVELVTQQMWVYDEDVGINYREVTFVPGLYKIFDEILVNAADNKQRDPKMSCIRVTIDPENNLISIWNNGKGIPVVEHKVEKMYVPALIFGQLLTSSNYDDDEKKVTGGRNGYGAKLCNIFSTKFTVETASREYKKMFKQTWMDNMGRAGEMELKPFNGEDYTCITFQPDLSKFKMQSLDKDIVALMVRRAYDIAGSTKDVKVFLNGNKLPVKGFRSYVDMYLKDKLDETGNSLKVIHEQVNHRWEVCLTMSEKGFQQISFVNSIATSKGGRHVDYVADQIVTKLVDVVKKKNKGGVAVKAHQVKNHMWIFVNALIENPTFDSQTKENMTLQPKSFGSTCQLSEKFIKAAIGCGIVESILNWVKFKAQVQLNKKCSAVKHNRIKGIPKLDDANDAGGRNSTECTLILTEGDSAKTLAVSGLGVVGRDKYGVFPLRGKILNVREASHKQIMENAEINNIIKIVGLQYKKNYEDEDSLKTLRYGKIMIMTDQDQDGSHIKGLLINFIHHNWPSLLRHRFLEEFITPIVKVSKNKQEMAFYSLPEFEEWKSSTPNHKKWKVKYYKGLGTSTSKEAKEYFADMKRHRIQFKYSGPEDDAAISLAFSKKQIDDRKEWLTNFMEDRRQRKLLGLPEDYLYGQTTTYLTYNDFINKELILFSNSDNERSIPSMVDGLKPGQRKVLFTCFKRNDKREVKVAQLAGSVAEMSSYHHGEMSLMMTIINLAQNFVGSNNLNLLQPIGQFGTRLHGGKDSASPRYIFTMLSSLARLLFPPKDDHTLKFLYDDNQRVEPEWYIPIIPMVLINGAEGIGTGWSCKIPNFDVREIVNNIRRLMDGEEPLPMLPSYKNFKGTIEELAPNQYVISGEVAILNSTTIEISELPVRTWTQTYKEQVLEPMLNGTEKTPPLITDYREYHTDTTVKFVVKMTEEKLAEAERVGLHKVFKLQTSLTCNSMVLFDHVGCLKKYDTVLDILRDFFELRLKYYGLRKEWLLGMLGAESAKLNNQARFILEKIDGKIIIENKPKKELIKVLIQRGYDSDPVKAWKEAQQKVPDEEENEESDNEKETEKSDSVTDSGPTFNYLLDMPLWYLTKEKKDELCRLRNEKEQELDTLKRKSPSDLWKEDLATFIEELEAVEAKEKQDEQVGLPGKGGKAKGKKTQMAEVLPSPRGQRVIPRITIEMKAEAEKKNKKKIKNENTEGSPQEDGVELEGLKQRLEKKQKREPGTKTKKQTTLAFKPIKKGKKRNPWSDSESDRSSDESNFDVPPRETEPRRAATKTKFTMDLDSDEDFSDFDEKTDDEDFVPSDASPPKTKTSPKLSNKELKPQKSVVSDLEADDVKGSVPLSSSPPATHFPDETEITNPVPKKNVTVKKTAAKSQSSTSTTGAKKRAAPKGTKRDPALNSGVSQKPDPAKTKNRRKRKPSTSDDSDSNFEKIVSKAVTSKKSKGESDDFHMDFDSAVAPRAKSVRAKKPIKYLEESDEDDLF

Row | IC50 [1] | IC50 (human DNA Topo II) | inhibition at 0.1 µM (human DNA Topo II) | inhibition at 1 µM (human DNA Topo II) | inhibition at 10 µM (human DNA Topo II) | inhibition at 100 µM (human DNA Topo II) | IC50 [2] | Structure (SMILES) | early apoptosis, fold more than the control (PC-3 cells) | late apoptosis, fold more than the control (PC-3 cells) | necrosis, fold more than the control (PC-3 cells) | total apoptosis, fold more than the control (PC-3 cells) | phase of cell cycle arrest (T-24 cells) | increase in the percentage of cells in the S phase compared to the control (T-24 cells; T-24 cells, at IC50, 24 h) | increase in the percentage of cells at pre-G1 compared to the control (T-24 cells; T-24 cells, at IC50, 24 h)
1 | 5.68 ± 0.3 µM | 0.92 ± 0.05 µM | 28% | 51.9% | 76.3% | 87.4% | 92.2 ± 4.69 µM | O=C1CC(=O)N(C(=O)CN2CCN(c3cc4c(cc3F)c(=O)c(C(=O)O)cn4C3CC3)CC2)N1 [Compound 6, 1-cyclopropyl-7-(4-(2-(3,5-dioxopyrazolidin-1-yl)-2-oxoethyl)piperazin-1-yl)-6-fluoro-4-oxo-1,4-dihydroquinoline-3-carboxylic acid] | 54.69 fold | 31.72 fold | 1.62 fold | 13.02 fold | S phase | 1.4 fold | –
2 | 3.36 ± 0.19 µM | 0.74 ± 0.04 µM | 32.5% | 50.3% | 77.4% | 91.6% | 11 ± 0.56 µM | O=C(CN1CCN(c2cc3c(cc2F)c(=O)c(C(=O)O)cn3C2CC2)CC1)NN=C1C(=O)Nc2ccccc21 [Compound 8a, 1-Cyclopropyl-6-fluoro-4-oxo-7-(4-(2-oxo-2-(2-(2-oxoindolin-3-ylidene)hydrazinyl)ethyl)piperazin-1-yl)-1,4-dihydroquinoline-3-carboxylic acid] | 41.15 fold | 76.77 fold | 2.44 fold | 14.87 fold | S phase | 1.11 fold | 20.1 fold
